Measured values reported in patent publication US6506755B2, “Thiazolidinecarboxyl acids” (Hoffmann-La Roche Inc., priority 2000, dated 2003).

Assays:
[1] = target: human urokinase (uPA) binding to the specific receptor uPAR (Homo sapiens, UniProt Q03405); assay: ELISA test of inhibition of uPA binding to the receptor uPAR; settings: compound concentration 1 μg/ml, 96-well microtitre plates
Experimental: The compound of the invention were tested (ELISA test) as human urokinase (uPA) inhibitors, which bind to the specific receptor uPAR mAk (BIO-R4), in accordance with the procedure described by Rettenberger et al. In Biol. Chem. Hoppe Seyler 376, 587-94 (1995). The assays are carried out in microtitre plates (96 wells).

Chain of human urokinase (uPA) binding to the specific receptor uPAR (Q03405 23-305 limits assumed): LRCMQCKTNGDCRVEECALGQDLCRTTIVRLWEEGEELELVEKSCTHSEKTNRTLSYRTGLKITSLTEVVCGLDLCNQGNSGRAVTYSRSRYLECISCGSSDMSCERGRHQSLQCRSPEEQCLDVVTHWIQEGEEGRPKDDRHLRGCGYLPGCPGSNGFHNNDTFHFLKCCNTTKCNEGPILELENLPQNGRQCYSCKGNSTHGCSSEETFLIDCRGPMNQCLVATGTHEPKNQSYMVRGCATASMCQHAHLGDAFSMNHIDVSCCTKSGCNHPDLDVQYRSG

| Compound | inhibition at 1 µg/mL [1] | melting point | % Inhibition at 1 μg/ml concentration [1] |
| --- | --- | --- | --- |
| Cc1ccc(COc2ccc(C=C3SC(=S)N(CC(=O)O)C3=O)c(OCc3ccc(C)cc3)c2)cc1 [Compound 2, 5-[(2,4-Bis-(4-methylphenylmethoxy)phenyl)methylene]-4-oxo-2-thioxo-3-thiazolidineacetic acid] | 48% | 211 °C |  |
| Cc1ccc(COc2ccc(OCc3ccc(C)cc3)c(C=C3SC(=S)N(CC(=O)O)C3=O)c2)cc1 [Example 2, 5-[(2,5-Bis-(4-methylphenylmethoxy)phenyl)methylene]-4-oxo-2-thioxo-3-thiazolidineacetic Acid] | 68% |  |  |
| Cc1ccc(COc2ccc(C=C3SC(=S)N(C(C(=O)O)c4ccccc4)C3=O)c(OCc3ccc(C)cc3)c2)cc1 (stereo not drawn) [Example 22, 2-{5-[(2,4-Bis-(4-methylphenylmethoxy)phenyl)methylene]-4-oxo-2-thioxo-3-thiazolidine}-2-phenylacetic Acid] |  |  | 60% |
| Cc1ccc(COc2ccc(C=C3SC(=S)N(C(Cc4ccccc4)C(=O)O)C3=O)c(OCc3ccc(C)cc3)c2)cc1 (stereo not drawn) [Example 23, 2-{5-[(2,4-Bis-(4-methylphenylmethoxy)phenyl)methylene]-4-oxo-2-thioxo-3-thiazolidine}-3-phenypropionic Acid] |  |  | 54% |
| Cc1ccc(COc2ccc(C=C3SC(=S)N(C(C(=O)O)c4ccc(Cl)cc4)C3=O)c(OCc3ccc(C)cc3)c2)cc1 (stereo not drawn) [Example 24, 2-{5-[(2,4-Bis-(4-methylphenylmethoxy)phenyl)methylene]-4-oxo-2-thioxo-3-thiazolidine}-2-(4-chlorophenyl)acetic Acid] |  |  | 69% |

Now from value to compound, other results behind:

| inhibition at 1 µg/mL [1] | melting point | Compound | % Inhibition at 1 μg/ml concentration [1] |
| --- | --- | --- | --- |
| 57% |  | O=C(O)CN1C(=O)C(=Cc2cc(OCCCc3ccc(Cl)cc3)ccc2OCCCc2ccc(Cl)cc2)SC1=S [Example 6, 5-[(2,5-Bis-(3-(4-chlorophenyl)propoxy)phenyl)methylene]-4-oxo-2-thioxo-3-thiazolidine-acetic Acid] |  |
| 53% |  | O=C(O)CN1C(=O)C(=Cc2cc(OCCCc3ccccc3)ccc2OCc2ccccc2)SC1=S [Example 13, 5-[(2-Phenylmethoxy-5-(3-phenylpropoxy)phenyl)methylene]-4-oxo-2-thioxo-3-thiazolidineacetic Acid] |  |
| 63% |  | O=C(O)CN1C(=O)C(=Cc2cc(OCCCc3ccccc3)ccc2OCc2cccs2)SC1=S [Example 15, 5-[(2-(2-Thienylmethoxy)-5-(3-phenylpropoxy)phenyl)methylene]-4-oxo-2-thioxo-3-thiazolidineacetic Acid] |  |
